Results from ChEMBL document CHEMBL4196131 (J Med Chem, 2018).

Columns and labels:
Estrogen receptor beta [1] = target: T1, Estrogen receptor beta (Homo sapiens, UniProt Q92731); test: Antagonist activity at human ERbeta expressed in HEK293T cells after 24 hrs by ERE-based dual luciferase reporter gene assay; format: cell-based
[2] = target: T2, Estrogen receptor (Homo sapiens) (UniProt P03372); test: Agonist activity at human ERalpha expressed in HEK293T cells after 24 hrs by ERE-based dual luciferase reporter gene assay relative to E2; format: cell-based
T2 sequence (whole entry): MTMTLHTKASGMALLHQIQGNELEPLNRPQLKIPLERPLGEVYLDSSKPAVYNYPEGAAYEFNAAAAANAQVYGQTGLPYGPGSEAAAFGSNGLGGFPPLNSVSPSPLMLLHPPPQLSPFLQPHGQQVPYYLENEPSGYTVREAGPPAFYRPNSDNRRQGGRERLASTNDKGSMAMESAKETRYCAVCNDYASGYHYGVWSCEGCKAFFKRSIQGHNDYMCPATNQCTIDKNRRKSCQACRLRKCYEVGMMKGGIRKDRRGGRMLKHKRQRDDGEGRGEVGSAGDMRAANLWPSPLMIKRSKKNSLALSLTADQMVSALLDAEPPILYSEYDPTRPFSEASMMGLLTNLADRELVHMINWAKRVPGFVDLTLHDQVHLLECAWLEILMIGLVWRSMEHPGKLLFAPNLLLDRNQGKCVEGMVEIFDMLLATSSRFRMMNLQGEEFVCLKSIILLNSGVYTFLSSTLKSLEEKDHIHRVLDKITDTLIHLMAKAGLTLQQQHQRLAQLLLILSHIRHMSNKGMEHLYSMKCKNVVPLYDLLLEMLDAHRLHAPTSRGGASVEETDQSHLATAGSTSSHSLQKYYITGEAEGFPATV

MCF7 = test: cells; settings: Homo sapiens, MCF7, 72 h
[3] = Inhibition of NFkappaB in mouse RAW 264.7 cells assessed as reduction in LPS induced NO production after 24 hrs by Griess assay; format: cell-based; settings: RAW264.7, 24 h
Estrogen receptor [4] = target: T3, Estrogen receptor (Homo sapiens, UniProt P03372); test: Antagonist activity at human ERalpha expressed in HEK293T cells after 24 hrs by ERE-based dual luciferase reporter gene assay; format: cell-based
T3 sequence (P03372 whole entry): T2 sequence (whole entry)

Estrogen receptor beta [5] = target: T1, Estrogen receptor beta; test: Agonist activity at human ERbeta expressed in HEK293T cells after 24 hrs by ERE-based dual luciferase reporter gene assay relative to E2; format: cell-based
Mus musculus = species: Mus musculus; test: Inhibition of NFkappaB in mouse RAW 264.7 cells assessed as reduction in LPS induced NO production at 10 uM after 24 hrs by Griess assay relative to control; format: cell-based
Estrogen receptor beta [6] = target: T1, Estrogen receptor beta; test: Antagonist activity at human ERbeta expressed in HEK293T cells after 24 hrs by ERE-based dual luciferase reporter gene assay relative to E2; format: cell-based; design: concentration or dose not given beside the values
[7] = target: T2, Estrogen receptor (Homo sapiens); test: Antagonist activity at human ERalpha expressed in HEK293T cells after 24 hrs by ERE-based dual luciferase reporter gene assay relative to E2; format: cell-based
Estrogen receptor beta [8] = target: T1, Estrogen receptor beta; test: Agonist activity at human ERbeta expressed in HEK293T cells after 24 hrs by ERE-based dual luciferase reporter gene assay; format: cell-based
Estrogen receptor beta [9] = target: T1, Estrogen receptor beta; test: Binding affinity to human ERbeta LBD after 2 hrs in absence of light by competitive fluorometric binding assay
Estrogen receptor [10] = target: T3, Estrogen receptor; test: Agonist activity at human ERalpha expressed in HEK293T cells after 24 hrs by ERE-based dual luciferase reporter gene assay; format: cell-based

T1 sequence (Q92731 whole entry): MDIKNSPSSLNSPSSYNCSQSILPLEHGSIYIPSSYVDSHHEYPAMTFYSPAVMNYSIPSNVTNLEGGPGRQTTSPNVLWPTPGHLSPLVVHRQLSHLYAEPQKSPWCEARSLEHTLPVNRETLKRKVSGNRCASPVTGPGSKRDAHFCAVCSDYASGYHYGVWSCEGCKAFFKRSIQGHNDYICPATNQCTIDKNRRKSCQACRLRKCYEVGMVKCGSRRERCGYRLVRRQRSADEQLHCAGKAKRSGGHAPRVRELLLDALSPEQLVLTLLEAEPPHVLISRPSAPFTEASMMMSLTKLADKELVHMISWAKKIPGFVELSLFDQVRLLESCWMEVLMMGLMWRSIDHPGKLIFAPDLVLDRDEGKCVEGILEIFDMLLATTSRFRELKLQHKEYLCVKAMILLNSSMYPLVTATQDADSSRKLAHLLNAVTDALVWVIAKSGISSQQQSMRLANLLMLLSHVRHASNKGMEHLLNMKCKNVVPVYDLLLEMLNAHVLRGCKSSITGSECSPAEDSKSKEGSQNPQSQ

SMILES | IC50 (Estrogen receptor beta [1]) [nM] | Efficacy [2] [%] | IC50 (MCF7) [nM] | IC50 [3] [nM] | IC50 (Estrogen receptor [4]) [nM] | Efficacy (Estrogen receptor beta [5]) [%] | inhibition (Mus musculus) [%] | Efficacy (Estrogen receptor beta [6]) [%] | Efficacy [7] [%] | EC50 (Estrogen receptor beta [8]) [nM] | Ki (Estrogen receptor beta [9]) [nM] | EC50 (Estrogen receptor [10]) [nM]
O=S(=O)(Oc1ccc(Br)cc1)C1CC2OC1C(c1ccc(/C=C/c3cc(O)cc(O)c3)cc1)=C2c1ccc(O)cc1 (configuration not stated) | 2530 | -9 | 16900 | 16500 | 61 | 10 | 22 | 43 | 15 |  |  | 
Cc1cccc(OS(=O)(=O)C2CC3OC2C(c2ccc(/C=C/c4cc(O)cc(O)c4)cc2)=C3c2ccc(O)cc2)c1 (configuration not stated) | 3110 | 22 | 16300 | 2410 | 947 | -3 | 68.4 | 46 | 2 |  |  | 
O=S(=O)(Oc1ccc(/C=C/c2cc(O)cc(O)c2)cc1)C1CC2OC1C(c1ccc(O)cc1)=C2c1ccc(O)cc1 (configuration not stated) |  | -9 | 10500 | 930 | 19 | 51 | 81 | 99 | 7 | 194 |  | 
O=S(=O)(Oc1ccccc1)C1CC2OC1C(c1ccc(/C=C/c3cc(O)cc(O)c3)cc1)=C2c1ccc(O)cc1 (configuration not stated) |  | 29 | 20100 | 6020 | 428 | 37 | 70.9 | 76 | 4 | 658 |  | 
COc1cc(/C=C/c2cccc(OS(=O)(=O)C3CC4OC3C(c3ccc(O)cc3)=C4c3ccc(O)cc3)c2)cc(OC)c1 (configuration not stated) |  | 13 | 11500 | 6370 | 738 | 47 | 55.1 | 86 | 47 |  |  | 
O=S(=O)(Oc1cccc(/C=C/c2cc(O)cc(O)c2)c1)C1CC2OC1C(c1ccc(O)cc1)=C2c1ccc(O)cc1 (configuration not stated) |  | 15 | 17800 | 16700 | 1410 | 62 | 24.8 | 93 | 29 | 749 | 4580 | 
O=S(=O)(Oc1ccccc1Cl)C1CC2OC1C(c1ccc(/C=C/c3cc(O)cc(O)c3)cc1)=C2c1ccc(O)cc1 (configuration not stated) | 4310 | 79 | 40400 | 5000 | 166 | 25 | 60.9 | 45 | 49 | 63 |  | 273
O=S(=O)(Oc1cccc2ccccc12)C1CC2OC1C(c1ccc(/C=C/c3cc(O)cc(O)c3)cc1)=C2c1ccc(O)cc1 (configuration not stated) |  | -10 | 11000 | 3290 | 49 | 65 | 44.4 | 71 | -4 | 222 |  | 
O=S(=O)(Oc1ccc(-c2ccccc2)cc1)C1CC2OC1C(c1ccc(/C=C/c3cc(O)cc(O)c3)cc1)=C2c1ccc(O)cc1 (configuration not stated) |  | 41 | 7800 | 18700 |  | 82 | 43 | 97 | 68 | 43 |  | 4930
CC/C(=C(\c1ccc(O)cc1)c1ccc(OCCN(C)C)cc1)c1ccccc1 [AFIMOXIFENE] |  |  | 9500 | > 100000 |  |  | 21.5 |  |  |  |  | 
O=S(=O)(Oc1cccc(Br)c1)C1CC2OC1C(c1ccc(/C=C/c3cc(O)cc(O)c3)cc1)=C2c1ccc(O)cc1 (configuration not stated) |  | 3 | 19800 | 2530 | 2420 | -2 | 60.9 | 65 | 21 |  | 50 | 
O=S(=O)(Oc1cccc(C(F)(F)F)c1)C1CC2OC1C(c1ccc(/C=C/c3cc(O)cc(O)c3)cc1)=C2c1ccc(O)cc1 (configuration not stated) | 42 | -7 | 11500 | 14600 | 72 | 29 | 41.6 | 31 | -10 | 1730 |  | 
O=S(=O)(Oc1cccc(Cl)c1)C1CC2OC1C(c1ccc(/C=C/c3cc(O)cc(O)c3)cc1)=C2c1ccc(O)cc1 (configuration not stated) |  | 16 | 12900 | 2140 | 932 | 60 | 62.1 | 91 | 4 | 2 |  | 
Cc1ccccc1OS(=O)(=O)C1CC2OC1C(c1ccc(/C=C/c3cc(O)cc(O)c3)cc1)=C2c1ccc(O)cc1 (configuration not stated) |  | 84 | 55800 | 28400 | 10 | 36 | 39.1 | 100 | 36 | 242 |  | 1250
COc1cc(/C=C/c2ccc(C3=C(c4ccc(O)cc4)C4CC(S(=O)(=O)Oc5cccc(OC)c5)C3O4)cc2)cc(OC)c1 (configuration not stated) | 646 | -2 | 77100 | 1260 |  | 37 | 60.1 | 39 | 32 | 941 |  | 
O=S(=O)(Oc1ccc(O)cc1)C1CC2OC1C(c1ccc(/C=C/c3cc(O)cc(O)c3)cc1)=C2c1ccc(O)cc1 (configuration not stated) |  | 12 | 14100 |  | 54 | 51 | 41 | 88 | 8 | 355 |  | 
O=S(=O)(Oc1ccc(/C=C/c2ccccc2)cc1)C1CC2OC1C(c1ccc(O)cc1)=C2c1ccc(O)cc1 (configuration not stated) |  | 6 | 8300 | 2230 | 149 | 25 | 72.4 | 74 | 54 | 31 |  | 
COc1cccc(OS(=O)(=O)C2CC3OC2C(c2ccc(/C=C/c4cc(O)cc(O)c4)cc2)=C3c2ccc(O)cc2)c1 (configuration not stated) |  | 55 | 10400 | 11100 | 48 | 52 | 42.3 | 102 | 36 | 3 |  | 
O=S(=O)(Oc1ccc(F)cc1)C1CC2OC1C(c1ccc(/C=C/c3cc(O)cc(O)c3)cc1)=C2c1ccc(O)cc1 (configuration not stated) |  | 16 | 13100 | 8880 | 5 | 45 | 71.9 | 98 | 7 | 276 |  | 
O=S(=O)(Oc1ccccc1)C1CC2OC1C(c1ccc(/C=C/c3ccccc3)cc1)=C2c1ccc(O)cc1 (configuration not stated) |  | 13 | 25200 | 9700 | 1030 | 48 | 40.4 | 83 | 34 | 2780 |  | 
COc1cc(/C=C/c2ccc(OS(=O)(=O)[C@@H]3C[C@@H]4O[C@H]3C(c3ccc(O)cc3)=C4c3ccc(O)cc3)cc2)cc(OC)c1 |  |  | 2310 | 300 | 3 |  |  |  | 11 |  |  | 
CCc1ccccc1OS(=O)(=O)C1CC2OC1C(c1ccc(/C=C/c3cc(OC)cc(OC)c3)cc1)=C2c1ccc(O)cc1 (configuration not stated) |  | 18 | 49800 | 790 | 3 | 20 | 65.4 | 72 | 37 | 9 |  | 146
O=S(=O)(Oc1cccc(O)c1)C1CC2OC1C(c1ccc(/C=C/c3cc(O)cc(O)c3)cc1)=C2c1ccc(O)cc1 (configuration not stated) |  | 5 | 23000 | > 100000 | 6020 | 17 | 12.3 | 106 | 17 |  |  | 
COc1cc(/C=C/c2ccc(OS(=O)(=O)[C@H]3C[C@H]4O[C@@H]3C(c3ccc(O)cc3)=C4c3ccc(O)cc3)cc2)cc(OC)c1 |  |  | 18000 | 480 | 27 |  |  |  | 72 |  |  | 
O=S(=O)(Oc1ccc(Cl)cc1)C1CC2OC1C(c1ccc(/C=C/c3cc(O)cc(O)c3)cc1)=C2c1ccc(O)cc1 (configuration not stated) | 1020 | -5 | 17900 | 6500 | 62 | 7 | 62.1 | 33 | 11 |  |  | 
